Assay results: the supplement of paper PMC6470124

Columns and labels:
[1] = absolute recovery over vacuum-assisted evaporative concentration; higher = better recovery; details: enrichment method: VEC
How it was run: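 Water samples (influent 6 mL, effluent 15 mL, surface and nanopure water 60 mL) were spiked with standards before concentration, after concentration or not at all, at 200 ng/L (nanopure/surface) or 1000 ng/L (wastewater), with class- and compound-specific adjustments. They were evaporated at 55 °C and 20 mbar to about 0.3 mL, brought to 0.4 mL and centrifuged. Internal standards were added afterwards and samples were analysed by LC-HRMS/MS. Absolute recovery was (response ratio pre − unspiked)/(post − unspiked) × 100, using averages of ≥ 2 replicates.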

[2] = absolute recovery over mixed-bed multilayer solid-phase extraction; higher = better recovery; details: enrichment method: SPE
How it was run: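 Absolute recovery was calculated by comparing background-corrected response ratios of samples spiked before extraction with those spiked after it, averaged over at least two replicates. Wastewater (100–250 mL, adjusted to pH 6.5 and glass-fibre filtered) or 1000 mL of unfiltered nanopure water was passed through a three-layer mixed-bed cartridge and eluted with basic and then acidic ethyl acetate/methanol. Standards were added before extraction, after extraction, or not at all, at 200 ng/L in water or 1000 ng/L in wastewater, with exceptions for some classes. Internal standards were added afterwards, and samples were analysed by liquid chromatography with high-resolution tandem mass spectrometry in both ionisation modes.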

[3] = LC retention time (Atlantis T3, 5-95% MeOH gradient, 0.1% formic acid); higher = more retained / less polar
How it was run: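 Retention times were recorded for reference standards on a polar reversed-phase C18 column. The standards were of purity ≥ 95%, and the Atlantis T3 column (3 × 150 mm, 3 μm) was run at 0.3 mL/min with a gradient from 5 to 95% methanol over 17.5 min, both water and methanol containing 0.1% formic acid. Detection used high-resolution tandem mass spectrometry on a QExactive Plus, with positive and negative electrospray in separate runs, and peaks were integrated in TraceFinder (5 ppm tolerance, at least three points per peak) before being checked by hand.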

SMILES | absolute recovery ([1]; wastewater effluent) [%] | absolute recovery ([1]; wastewater influent) [%] | absolute recovery ([2]; nanopure water) [%] | absolute recovery ([2]; surface water) [%] | absolute recovery ([2]; wastewater effluent) [%] | absolute recovery ([2]; wastewater influent) [%] | LC retention time [3] [min]
CC(C)(Oc1ccc(C(=O)c2ccc(Cl)cc2)cc1)C(=O)[O-] [Fenofibric-acid] | 106 | 102 | 98.5 | 86 | 82.7 | 99 | 20.8
N#CCNC(=O)c1cnccc1C(F)(F)F [Flonicamid] | 99.6 | 106 | 96.3 | 101 | 99.5 | 96 | 12.2
Clc1ccc(C(c2ccccc2)N2CC[NH2+]CC2)cc1 (stereo not given) [1-[(4-Chlorophenyl)phenylmethyl]piperazine] | 86.4 | 116 | 82.7 | 84.1 | 85.4 | 122 | 16.2
Nc1[nH]c2ccccc2[nH+]1 [2-Aminobenzimidazol] | 103 | 99.3 | 90.5 | 90.3 | 91.9 | 92 | 9.5
CC1(C)CON(Cc2ccccc2Cl)C1=O [Clomazon] | 80.3 | 78 |  | 92.1 | 82.7 | 87.1 | 19
O=C(NC(=O)c1c(F)cccc1F)Nc1ccc(Cl)cc1 [Diflubenzuron] | 112 | 147 | 101 | 138 | 114 | 67.9 | 20.5
C=CCC1C=C(C)CC(C)CC(OC)C2OC(O)(C(=O)C(=O)N3CCCCC3C(=O)OC(C(C)=CC3CCC(O)C(OC)C3)C(C)C(O)CC1=O)C(C)CC2OC (stereo not given) [FK-506 (=Tacrolimus)] | 56.2 |  | 82.7 | 66.5 | 53.5 |  | 22.2
CCCCNC(=O)OCC#CI [IPBC (=Iodocarb)] | 60.1 |  | 97.8 | 79.9 | 72.2 | 74.3 | 18.1
CC(C)(C)Nc1nc(N)nc(Cl)n1 [Terbutylazin-desethyl] | 97.7 | 104 | 88.2 | 97.5 | 95.8 | 96.2 | 17.5
CC[NH+]1CCCC1CNC(=O)c1cc(S(N)(=O)=O)ccc1OC (stereo not given) [Sulpirid] | 101 | 101 | 80.1 | 80.6 | 77.1 | 93.3 | 8.45
CCNc1nc(O)nc(NC(C)C)n1 [Atrazin-2-Hydroxy] | 102 | 102 | 97.8 | 98 | 94.5 | 90 | 11.4
O=C([O-])c1cccc(Oc2ccccc2)c1 [3-Phenoxybenzoic-acid] | 98.8 | 102 | 103 |  | 96.1 | 99.4 | 19.8
CN1C(=O)CC(C)(c2ccccc2)C1=O (stereo not given) [Methsuximide] | 99 | 85.5 | 99.2 | 84.5 | 89.9 | 89.6 | 16.6
CCNc1nc(Cl)nc(NC(C)C)n1 [Atrazin] | 99.3 | 97.7 | 96.7 | 98.1 | 93.8 | 91.5 | 18.5
CC(=O)OCC(=O)C1(O)C(C)CC2C3CCC4=CC(=O)C=CC4(C)C3(F)C(O)CC21C (stereo not given) [Betamethasone 21-acetate C] | 92.7 | 85.2 | 93.1 | 89.4 | 89 | 98.3 | 19.6
C[NH+](C)CCCC1(c2ccc(F)cc2)OCc2cc(C#N)ccc21 (stereo not given) [Citalopram] | 104 | 100 | 94.1 | 96.1 | 92.4 | 93.9 | 14.5
CC(C)c1ccc(NC(N)=O)cc1 [Isoproturon-didemethyl (=1-(4-Isoprophenyl)urea)] | 102 | 103 | 99.9 | 94.1 | 95.4 | 95.4 | 17.7
CS(=O)(=O)c1cc(C(F)(F)F)ccc1C(=O)c1cnoc1C1CC1 [Isoxaflutole] | 74.8 |  | 19.2 | 21.8 | 22.8 | 35.1 | 18.3
Nc1nc(N)[nH+]c(NC2CC2)n1 [Cyromazin] | 101 | 104 | 83.7 |  | 88.1 | 91.5 | 7.27
O=S(=O)([O-])NC1CCCCC1 [Cyclamat] | 104 |  | 95.8 |  | 29 |  | 14.3
CC(Oc1ccc(Oc2ccc(C(F)(F)F)cn2)cc1)C(=O)[O-] (stereo not given) [Fluazifop] | 101 | 102 | 99.5 | 96.8 | 96.6 | 98 | 19.7
Nc1ccn(C2OC(CO)C(O)C2O)c(=O)n1 (stereo not given) [Cytarabin] | 89.3 |  | 103 | 112 | 104 | 64.6 | 15.6
CC(=O)N(C)c1ccccc1 [N-Methylacetanilid] | 74.1 | 81.1 | 84.7 | 77.4 | 84.9 | 144 | 15.5
Cc1ccc(NS(=O)(=O)N(C)C)cc1 [N-N-dimethyl-N-(4-methylphenyl)-sulfamide] | 99.5 | 104 | 94.7 | 98 | 91.7 | 96.1 | 17.2
CN(C)C(=O)Nc1ccc(Cl)c(Cl)c1 [Diuron] | 109 | 103 | 97.7 | 98.5 | 92.1 | 94.1 | 18.8
Cc1cc(N(C2OC(C(=O)[O-])C(O)C(O)C2O)S(=O)(=O)c2ccc(N)cc2)no1 (stereo not given) [Sulfamethoxazole-N1-Glucuronide] | 96.4 | 70.3 | 86.9 | 21.3 | 49.2 | 66.1 | 11.8

SMILES | absolute recovery ([1]; wastewater effluent) [%] | absolute recovery ([1]; wastewater influent) [%] | absolute recovery ([2]; nanopure water) [%] | absolute recovery ([2]; surface water) [%] | absolute recovery ([2]; wastewater effluent) [%] | absolute recovery ([2]; wastewater influent) [%] | LC retention time [3] [min]
O=C(OC1CC2CCC(C1)[N+]21CCCC1)C(O)(c1ccccc1)c1ccccc1 (stereo not given) [Trospium] | 99.2 | 103 | 85.5 | 91.7 | 91.1 | 87.3 | 13.7
CCOC(=O)C1(c2ccccc2)CC[NH+](C)CC1 [Meperidine] | 99.2 | 103 | 88.6 | 87.8 | 86.8 | 96.6 | 12.8
Cc1cc(C)nc([N-]S(=O)(=O)c2ccc(N)cc2)n1 [Sulfamethazin] | 103 | 96.1 | 95.2 | 91.3 | 86.2 | 89.8 | 12.1
Clc1cccc(N2CC[NH2+]CC2)c1 [1-(3-Chlorophenyl)-piperazine] | 103 | 99.6 | 70.3 | 74.7 | 68.1 | 79.3 | 12.6
CC(C)N(C(=O)CS(=O)(=O)[O-])c1ccccc1 [Propachlor-ESA] | 108 | 96.6 | 93.1 | 94.4 | 91.1 | 96.4 | 19.4
Cc1cccc(C)c1N(Cn1cccn1)C(=O)CS(=O)(=O)[O-] [Metazachlor-ESA] | 102 | 104 | 98.7 | 95.6 | 96.8 | 97.6 | 17.5
C[NH+](C)C(C)(C)CO [2-(Dimethylamino)-2-methyl-1-propanol] | 108 |  | 45.5 | 7.1 | 10.1 |  | 3.5
O=C1Nc2ccc(Cl)cc2C(c2ccccc2Cl)=NC1O (stereo not given) [Lorazepam] | 108 | 104 | 104 | 94.3 | 97.3 | 87.4 | 18.3
CC(C)N(C(=O)COc1nnc(C(F)(F)F)s1)c1ccc(F)cc1 [Flufenacet] | 114 | 95.3 | 100 | 95.9 | 97.5 | 83.5 | 20.1
COc1ccc(C(C[NH3+])C2(O)CCCCC2)cc1 (stereo not given) [N-N-Didesvenlafaxin] | 105 | 91 | 40.5 | 50.1 | 44.7 | 66.6 | 14.1
CCC1OC(=O)C(C)C(OC2CC(C)(OC)C(O)C(C)O2)C(C)C(OC2OC(C)CC([NH+](C)C)C2O)C(C)(OC)CC(C)C(=O)C(C)C(O)C1(C)O (stereo not given) [Clarithromycin] | 100 | 105 | 89.7 | 98.5 | 91 | 85.1 | 16.9
CC[N+]([O-])(CC)CC(=O)Nc1c(C)cccc1C [Lidocaine-N-Oxide] | 102 | 105 | 90.4 | 94.7 | 90.6 | 98.9 | 12.2
O=C1CCC2(O)C3Cc4ccc(O)c5c4C2(CC[NH+]3CC2CC2)C1O5 (stereo not given) [Naltrexon] | 103 | 99 | 87.8 | 98.2 | 95.7 | 94.3 | 9.63
CCc1ccc(C(=O)NN(C(=O)c2cc(C)cc(C)c2)C(C)(C)C)cc1 [Tebufenozid] | 102 | 98.1 | 104 | 111 | 98.7 | 103 | 20.5
COCCCOc1cc(CC(CC([NH3+])C(O)CC(C(=O)NCC(C)(C)C(N)=O)C(C)C)C(C)C)ccc1OC (stereo not given) [Aliskiren] | 87.1 | 91.1 | 67 | 82.7 | 68.3 | 72.9 | 16.7
COCC(C)N(C(=O)CCl)c1c(C)csc1C (stereo not given) [Dimethenamid] | 96 | 92.1 | 94.4 | 92.8 | 91.7 | 92.1 | 19.6
c1ccc2[nH]c(-c3cscn3)nc2c1 [Thiabendazol] | 102 | 105 | 79.2 | 77.5 | 81.8 | 92.3 | 11.7
C[NH2+]CCCC(C#N)(c1ccc(OC)c(OC)c1)C(C)C (stereo not given) [D617] | 101 | 100 | 89.5 | 84.5 | 86.9 | 81.5 | 14
Oc1cc(Cl)ccc1Oc1ccc(Cl)cc1Cl [Triclosan] |  | 117 | 97.2 | 90.7 | 90 | 92.3 | 21.9
CNC(=O)Oc1cccc2c1OC(C)(C)C2 [Carbofuran] | 83.9 | 96.7 | 91.7 | 91.3 | 94.7 | 93.5 | 17
CC1COC(Cn2cncn2)(c2ccc(Oc3ccc(Cl)cc3)cc2Cl)O1 (stereo not given) [Difenoconazol] | 100 | 126 | 90.2 | 100 | 102 | 70.9 | 21.4
CSc1nc(N)nc(NC(C)(C)C)n1 [Irgarol-descyclopropyl] | 106 | 115 | 107 | 100 | 101 | 79 | 16.3
C[NH+](C)CCC=C1c2ccccc2CCc2ccccc21 [Amitriptyline E] | 110 | 108 | 84.5 | 106 | 96.3 | 58.1 | 16.1
CC12CCC(=O)C=C1CCC1C2C(O)CC2(C)C1CCC2(O)C(=O)CO (stereo not given) [Hydrocortison] | 102 | 57.5 | 86.5 | 80.2 | 80.9 | 94 | 18
O=C([O-])Cc1ccccc1Nc1c(Cl)cc(O)cc1Cl [4-Hydroxydiclofenac A] | 95.8 | 92.8 | 73.5 | 81.4 | 76.2 | 83.3 | 19.2
O=C([O-])C=C(F)C(F)(F)C(F)(F)C(F)(F)C(F)(F)C(F)(F)F [6-2-FTUCA] | 143 | 97.7 | 69.6 | 89.6 | 97.8 | 77.9 | 23.2
